Where “and” joins values, the source holds several entries; their conditions need not be identical. Equal entries are not always repeated. Toxic doses and inconclusive results are not listed.
System: P388 leukemia ip, CD2F1 mice, survival T/C
Test: NCI In Vivo Anticancer Drug Screen. Data for tumor model P388 Leukemia (intraperitoneal) in CD2F1 (CDF1) mice
Settings: endpoint: median survival time, higher = longer survival
Procedure, shortened: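 Mice carrying the transplanted tumor received test compound or vehicle. Survival was recorded in each group, and the value is the treated-group measurement divided by that of the vehicle-treated control group.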

[1] = dose: 15.0 mg/kg/injection, schedule: Q01DX005 (ip), vehicle: saline with Tween-80
[2] = dose: 400.0 mg/kg/injection, schedule: Q01DX009 (ip), vehicle: saline with Tween-80
[3] = dose: 100.0 mg/kg/injection, schedule: Q01DX009 (ip), vehicle: saline with Tween-80
[4] = dose: 200.0 mg/kg/injection, schedule: Q01DX009 (ip), vehicle: saline with Tween-80
[5] = dose: 25.0 mg/kg/injection, schedule: Q01DX009 (ip), vehicle: saline with Tween-80
[6] = dose: 50.0 mg/kg/injection, schedule: Q01DX005 (ip), vehicle: saline with Tween-80
[7] = dose: 100.0 mg/kg/injection, schedule: Q01DX005 (ip), vehicle: saline with Tween-80
[8] = dose: 200.0 mg/kg/injection, schedule: Q01DX005 (ip), vehicle: saline with Tween-80
[9] = dose: 50.0 mg/kg/injection, schedule: Q01DX009 (ip), vehicle: Klucel (hydroxypropylcellulose) (HPC)
[10] = dose: 100.0 mg/kg/injection, schedule: Q01DX009 (ip), vehicle: Klucel (hydroxypropylcellulose) (HPC)
[11] = dose: 200.0 mg/kg/injection, schedule: Q01DX009 (ip), vehicle: Klucel (hydroxypropylcellulose) (HPC)
[12] = dose: 50.0 mg/kg/injection, schedule: Q01DX009 (ip), vehicle: saline with Tween-80

With `CSC(=S)n1nc(C)c(N=Nc2ccc(Br)cc2)c1C` the T/C (dose: 100.0 mg/kg/injection, schedule: Q04DX002 (ip), vehicle: Klucel (hydroxypropylcellulose) (HPC)) was 107 % of control, the T/C (dose: 200.0 mg/kg/injection, schedule: Q04DX002 (ip), vehicle: Klucel (hydroxypropylcellulose) (HPC)) was 103 % of control and the T/C (dose: 400.0 mg/kg/injection, schedule: Q04DX002 (ip), vehicle: Klucel (hydroxypropylcellulose) (HPC)) was 103 % of control.

`COc1ccc(NC(=O)C2C(=O)C(=O)N(c3ccc(OC)cc3)C2=O)cc1` (stereo not drawn) was tested, and the T/C (dose: 100.0 mg/kg/injection, schedule: Q04DX002 (ip), vehicle: saline with Tween-80) was 100 % of control and the T/C (dose: 200.0 mg/kg/injection, schedule: Q04DX002 (ip), vehicle: saline with Tween-80) was 101 % of control.

`CN(C)c1ccc(C(c2c(O)c3ccccc3oc2=O)c2c(O)c3ccccc3oc2=O)cc1` was tested, and the T/C (dose: 3.75 mg/kg/injection, schedule: Q01DX005 (ip), vehicle: saline with Tween-80) was 99 % of control, the T/C (dose: 7.5 mg/kg/injection, schedule: Q01DX005 (ip), vehicle: saline with Tween-80) was 91 % of control and the T/C [1] was 88 % of control and 98 % of control.

For `O=C(O)c1ccccc1C(=O)Nc1ccccc1C(F)(F)F`, the T/C (dose: 178.0 mg/kg/injection, schedule: Q01DX009 (ip), vehicle: saline with Tween-80) was 110 % of control, the T/C (dose: 266.0 mg/kg/injection, schedule: Q01DX009 (ip), vehicle: saline with Tween-80) was 104 % of control and the T/C [2] was 101 % of control.

With `Cc1cc(=O)c2c(ccc3ccccc32)[nH]1` the T/C [3] was 106 % of control, the T/C [4] was 109 % of control and the T/C [2] was 104 % of control.

`CCCCN(CCCC)CC(O)c1ccc2cc(Cl)cc(Cl)c2n1` (stereo not drawn) was tested, and the T/C (dose: 6.25 mg/kg/injection, schedule: Q01DX009 (ip), vehicle: saline with Tween-80) was 90 % of control, the T/C (dose: 12.5 mg/kg/injection, schedule: Q01DX009 (ip), vehicle: saline with Tween-80) was 100 % of control and the T/C [5] was 100 % of control.

With `CCCCCCNCC(=O)OCC` the T/C (dose: 50.0 mg/kg/injection, schedule: Q01DX005 (ip), vehicle: saline) was 101 % of control, the T/C (dose: 100.0 mg/kg/injection, schedule: Q01DX005 (ip), vehicle: saline) was 106 % of control and the T/C (dose: 200.0 mg/kg/injection, schedule: Q01DX005 (ip), vehicle: saline) was 110 % of control.

For `CCN1N=Nc2ccccc2NC1=O`, the T/C [6] was 101 % of control, the T/C [7] was 91 % of control and the T/C [8] was 96 % of control.

With `O=C(CNNC(=S)Nc1cccc2ccccc12)c1cccc2c1Nc1ccccc1S2` the T/C [9] was 101 % of control, the T/C [10] was 103 % of control and the T/C [11] was 101 % of control.

With `NS(=O)(=O)c1cc([N+](=O)[O-])sc1SSc1sc([N+](=O)[O-])cc1S(N)(=O)=O` the T/C (dose: 6.25 mg/kg/injection, schedule: Q01DX001 (ip), vehicle: saline with Tween-80) was 99 % of control, the T/C (dose: 12.5 mg/kg/injection, schedule: Q01DX001 (ip), vehicle: saline with Tween-80) was 104 % of control and the T/C (dose: 25.0 mg/kg/injection, schedule: Q01DX001 (ip), vehicle: saline with Tween-80) was 100 % of control.

In the case of `C/C(=N\NC(N)=O)c1cccc(/C(C)=N/NC(N)=O)n1`, the T/C [5] is reported as 116 % of control and the T/C [12] is reported as 109 % of control and 118 % of control.

`C/C(=N\N=C(/[Se])N1CCCCC1C)c1ccccn1` (stereo not drawn) was tested, and the T/C (dose: 12.5 mg/kg/injection, schedule: Q04DX003 (ip), vehicle: Klucel (hydroxypropylcellulose) (HPC)) was 101 % of control and the T/C (dose: 25.0 mg/kg/injection, schedule: Q04DX003 (ip), vehicle: Klucel (hydroxypropylcellulose) (HPC)) was 114 % of control.

With `Cc1ccc(N2C(=O)CC3(CCCCC3)C2=O)cc1C` the T/C [9] was 106 % of control, the T/C [10] was 105 % of control and the T/C [11] was 97 % of control.

`C=C(C)C(=O)Oc1ccccc1/C=C/C(=O)CCCCCC` was tested, and the T/C [6] was 98 % of control, the T/C [7] was 96 % of control and the T/C [8] was 88 % of control.

In the case of `CC(=O)C(/C=N\N=C(/C)c1cn[nH]c1C)=C(/C)O`, the T/C (dose: 60.0 mg/kg/injection, schedule: Q01DX005 (ip), vehicle: Klucel (hydroxypropylcellulose) (HPC)) is reported as 96 % of control, the T/C (dose: 120.0 mg/kg/injection, schedule: Q01DX005 (ip), vehicle: Klucel (hydroxypropylcellulose) (HPC)) is reported as 92 % of control and the T/C (dose: 240.0 mg/kg/injection, schedule: Q01DX005 (ip), vehicle: Klucel (hydroxypropylcellulose) (HPC)) is reported as 89 % of control.

With `Cc1noc2c1N=C(c1ccccc1)CC(c1ccccc1)C2` (stereo not drawn) the T/C (dose: 25.0 mg/kg/injection, schedule: Q01DX009 (ip), vehicle: Klucel (hydroxypropylcellulose) (HPC)) was 104 % of control, the T/C [9] was 104 % of control and 111 % of control and the T/C [10] was 109 % of control. For the same molecule, the T/C [11] was 109 % of control.

For `CCOC(=O)c1ccc(NC(CCN2CCOCC2)=NC(C)(C)C)cc1`, the T/C [12] was 111 % of control, the T/C [3] was 106 % of control and the T/C [4] was 105 % of control.

`CC1CN1c1cc(O)c(N2CC2C)cc1O` (stereo not drawn) was tested, and the T/C (dose: 0.29 mg/kg/injection, schedule: Q01DX009 (ip), vehicle: saline with Tween-80) was 100 % of control, the T/C (dose: 0.44 mg/kg/injection, schedule: Q01DX009 (ip), vehicle: saline with Tween-80) was 118 % of control and the T/C (dose: 0.63 mg/kg/injection, schedule: Q04DX003 (ip), vehicle: saline with Tween-80) was 109 % of control. The T/C (dose: 0.66 mg/kg/injection, schedule: Q01DX009 (ip), vehicle: saline with Tween-80) was 122 % of control, the T/C (dose: 2.5 mg/kg/injection, schedule: Q04DX003 (ip), vehicle: saline with Tween-80) was 150 % of control and the T/C (dose: 4.4 mg/kg/injection, schedule: Q04DX003 (ip), vehicle: saline with Tween-80) was 228 % of control. For the same molecule, the T/C (dose: 5.0 mg/kg/injection, schedule: Q04DX003 (ip), vehicle: saline with Tween-80) was 159 % of control and the T/C (dose: 6.6 mg/kg/injection, schedule: Q04DX003 (ip), vehicle: saline with Tween-80) was 238 % of control.

In the case of `CCOC(=O)N1CCC23C=C(OC)C(=O)C=C2C1CC1=C3C(=O)C(OC)=CC1=O` (stereo not drawn), the T/C (dose: 100.0 mg/kg/injection, schedule: Q01DX001 (ip), vehicle: saline) is reported as 101 % of control, the T/C (dose: 200.0 mg/kg/injection, schedule: Q01DX001 (ip), vehicle: saline) is reported as 97 % of control and the T/C (dose: 400.0 mg/kg/injection, schedule: Q01DX001 (ip), vehicle: saline) is reported as 105 % of control.

With `O=C(O)c1ccccc1C(c1ccccc1)c1ccccc1` the T/C [5] was 100 % of control, the T/C [12] was 100 % of control and the T/C [3] was 100 % of control.

With `C=CC(OC(C)=O)OC(C)=O` the T/C (dose: 8.0 mg/kg/injection, schedule: Q01DX009 (ip), vehicle: saline) was 109 % of control, the T/C (dose: 12.0 mg/kg/injection, schedule: Q01DX009 (ip), vehicle: saline) was 118 % of control and the T/C (dose: 18.0 mg/kg/injection, schedule: Q01DX009 (ip), vehicle: saline) was 109 % of control.

For `CCCCCCCC(=O)c1c(O)c2ccccc2oc1=O`, the T/C [1] was 102 % of control, the T/C (dose: 30.0 mg/kg/injection, schedule: Q01DX005 (ip), vehicle: saline with Tween-80) was 105 % of control and the T/C (dose: 60.0 mg/kg/injection, schedule: Q01DX005 (ip), vehicle: saline with Tween-80) was 103 % of control and 96 % of control.

In the case of `C=C1C2CCC3C(CCC4C35CCC[C@]4(C)CN3CCO[C@H]35)(C2)[C@H]1O` (stereo partly drawn), the T/C (dose: 1.0 mg/kg/injection, schedule: Q01DX009 (ip), vehicle: Klucel (hydroxypropylcellulose) (HPC)) is reported as 100 % of control, the T/C (dose: 2.0 mg/kg/injection, schedule: Q01DX009 (ip), vehicle: Klucel (hydroxypropylcellulose) (HPC)) is reported as 98 % of control and the T/C (dose: 4.0 mg/kg/injection, schedule: Q01DX009 (ip), vehicle: Klucel (hydroxypropylcellulose) (HPC)) is reported as 106 % of control. The T/C (dose: 8.0 mg/kg/injection, schedule: Q01DX009 (ip), vehicle: Klucel (hydroxypropylcellulose) (HPC)) was 96 % of control.
